Source: article PMC10313070, “Design, in silico and pharmacological evaluation of a peptide inhibitor of BACE-1” (Frontiers in Pharmacology, 2023)
Entries after “also recorded” stand apart in the source; their conditions may differ. No end group written: not given here.

What was measured:
[1] = tested on: BACE-1; set-up: method as in Lee et al., 2019; details: ref Lee et al., 2019; cited from earlier work
[2] = tested on: SH-SY5Y cells; set-up: method as in Lee et al., 2019; details: ref Lee et al., 2019; cited from earlier work
[3] = molecular target: T1, recombinant BACE-1 (Homo sapiens, UniProt P56817); assay: Enzymatic kinetics on recombinant BACE-1 (Lineweaver-Burk); assay type: biochemical; details: 10 μM peptide, substrate 0–32 µM
T1 construct: purchased Sigma-Aldrich MAK237
Experimental: The peptide was commercially obtained (manufactured by Biotik, commercialized by FastBio, Brazil) and synthetized by the solid phase with >95% purity. The peptide was tested using an enzymatic kinetics model, in which 10 μM of peptide (diluted in 0.9% saline solution) was incubated with recombinant BACE-1 and reaction buffer for 15 min at room temperature (MAK237, Sigma-Aldrich, St Louis, MO, United States). After that, H-Arg-Glu (EDANS)[…](DABCYL)Arg-OH quencher substrate (0–32 µM) was added to the reaction mixture. Readings were taken using a fluorimeter (Glomax, Promega, Madison, WI, United States) every 5 min at 37° in a λex = 335 and λem = 510. Experiments were conducted in triplicate in two independent sets, and the mean of fluorescence was obtained for further calculations. The velocity of the reaction was calculated as ∆ fluorescence values at ∆ time for each substrate concentration. 1/V and 1/S values were obtained and plotted in a graph (Lineweaver–Burk plot), and kinetic parameters (slope, Vmax, Km, and Ki) were calculated as the mean ± SD using GraphPad Prism v5.

[4] = in vivo; set-up: species or system mice; details: mouse
Experimental: Authorization for pharmacokinetics analyses was obtained from the Ethics Committee of Instituto Butantan (CEUAIB 58872400322), where the experiments with animals were carried out. Healthy adult male Swiss mice weighing approximately 25 g were used. All animals were placed in microisolators for a 12-h light/dark cycle, 70% humidity, and a constant average temperature (22°C).
(§1) A single dose of the peptide diluted in sterile PBS (pH 7.4) was injected intravenously in the bolus into the caudal vein of mice (n = 3) at a concentration of 4 mg/kg (0.2 mL). A group of animals (n = 3) received the sterile saline solution for the plasma and organ control, without the peptide (named ‘basal’). Blood was taken after 0, 5, and 30 min and 2, 6, and 24 h after injection. At these times, blood was collected via the retro-orbital route using a Pasteur pipette and dispensed into plastic tubes containing EDTA. The final blood volume was subjected to centrifugation at 1,500 rpm for 10 min at room temperature to obtain plasma, which was stored in a −80°C freezer until the analysis.
(§2) Both plasma and organs (150 μL) were incubated with 100 mM DL-dithiothreitol at room temperature for 30 min; after that, they were incubated to 300 mM iodoacetamide at room temperature for another 30 min in the dark. Subsequently, 150 μL of 0.1% formic acid solution and 400 μL of Milli-Q water were added and agitated for 5 min. The samples were then submitted to solid-phase extraction using a C18 cartridge (Supelco) with elution in a 60:40 acetonitrile:water solution (v/v). The eluate was inserted by mass spectrometry for analysis and quantification.
(§3) The determination and quantification of the peptide in plasma and organs of mice were performed by liquid chromatography (UPLC system, Waters Co.) coupled to mass spectrometry ESI-Xevo TQ-S (Waters Co., United States). The samples were inserted in a C18 column (Luna, 5 μm, 150 × 4.6 mm, Phenomenex) and eluted by 70% methanol in water, containing 0.05% formic acid in a constant flow of 0.3 mL/min. The ion was monitored at the positive ionization mode, 150°C source temperature, 550°C desolvation temperature, 800 L/h desolvation gas flow, 2 kV for capillary, and […] cone voltage. Data were acquired and analyzed using MassLynx 4.
(§4) To define the relationship between the instrument response and the known concentration of the peptide, a calibration curve with six points of the peptide (0.1–20 μg/mL for plasma and 5–40 μg/mL for organs) was generated in a range defined according to the sensitivity of the method and the expected concentrations of the samples in animals (based on the amount of peptide injected).
Each analysis lot contained the following samples: a calibration curve consisting of a blank sample (peptide-free biological matrix), samples containing peptide standard, and plasma or organ samples. Calibration functions were calculated using the peak areas of the peptide. The peptide concentrations in the samples were calculated from the weighted linear regression equation (1/×2) obtained from the calibration curve (peptide concentration as the function of the area). This regression model (1/×2) was used because of the amplitude of the calibration curve.
(§5) The plasma concentration (Cp), in µg/L, was determined by mass spectrometric analysis, and then, area data were analyzed using the PKSolver add-in program for Microsoft Excel. Pharmacokinetics parameters as the natural logarithm of Cp (lnCp), Cp0, half-life, and clearance were calculated in a compartmental analysis of plasma data after the intravenous bolus input ([Zhang et al., 2010]). For organs, data are present as mean ± SD for each point.

[5] = Peptide quantification in mouse organs by mass spectrometry; assay type: in vivo; details: mice, 4 mg/kg i.v.
Experimental: as §1
Moreover, organs were obtained at the same times, after a lethal injection of anesthetics (ketamine 300 mg/kg and xylazine 30 mg/kg). The organs collected included the brain, pancreas, spleen, kidneys, lungs, and liver. The organs were washed with the saline solution to remove excess blood, frozen in liquid nitrogen, and kept at −80°C until use. For the experiments, organs were submerged in 1 mL of 50 mM PBS with pH 7.5 containing peptidases inhibitors (aprotinin, bestatin, E-64, leupeptin, and pepstatin A, a protease inhibitor cocktail, Sigma-Aldrich) and lysed in a tissue and cell disruptor (ULTRA-TURRAX IKA, Staufen, Germany). The lysate was centrifuged for 2 min at 13,200 rpm at 4°C, and the supernatant resulting from centrifugation was stored in a −80°C freezer until the analysis.
as §2, §3, §4, §5

[6] = Histology of organs and toxicity after peptide injection; assay type: in vivo, mice
From the text: Organs were removed and immediately fixed in Bouin’s solution for processing by dehydration ethanol sessions and historesin embedding to obtain 3 µm thick transversal slides. Sections were stained with hematoxylin–eosin and examined using a light microscope for a qualitative analysis.

[7] = tested on: BACE-1; set-up: method as in Wu et al., 2016; details: ref Wu et al., 2016; cited from earlier work

T1 sequence (P56817 46-501): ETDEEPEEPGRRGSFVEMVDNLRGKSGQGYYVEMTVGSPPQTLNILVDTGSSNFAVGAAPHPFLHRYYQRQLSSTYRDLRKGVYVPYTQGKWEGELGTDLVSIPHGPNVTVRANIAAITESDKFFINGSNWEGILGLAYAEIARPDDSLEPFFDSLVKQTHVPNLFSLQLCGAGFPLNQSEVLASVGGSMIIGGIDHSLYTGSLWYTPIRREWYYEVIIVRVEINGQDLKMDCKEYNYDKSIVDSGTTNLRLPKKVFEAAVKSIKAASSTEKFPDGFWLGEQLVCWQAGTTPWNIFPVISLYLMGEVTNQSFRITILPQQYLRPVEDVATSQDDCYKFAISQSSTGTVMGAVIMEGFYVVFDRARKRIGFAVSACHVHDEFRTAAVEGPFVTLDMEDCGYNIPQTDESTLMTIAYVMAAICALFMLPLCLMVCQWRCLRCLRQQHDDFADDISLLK

## Leu–Asn
[1]
  BACE-1 inhibitory activity among fragments derived from the original peptide: most potent activity
[2]
  Aβ production in SH-SY5Y cells: reducing the Aβ production

## SLAFVDVLN [peptide]
[3]
  Ki: 94 nM
[4]; male, Swiss, iv, 4 mg/kg
  AUC(0-inf): 2600 ng·h/mL
  AUC(0-t): 2600 ng·h/mL
  C0: 2600 ng/mL
  MRT: 1 h
[4]; male, Swiss, iv, 4 mg/kg, t1/2
  half-life: ~1 h
[4]
  Vss: 0.0015
  clearance: 0.0015
[4]; iv
  Enzymatic cleavage of the peptide in vivo (intact mass, fragments by mass spectrometry): no enzymatic cleavage
[4]; iv, 4 mg/kg
  AUMC: 2,595.96 μg/L*h^2
  CL: 0.00154 (mg/kg)/(μg/L)/h
  V: 0.00154 (mg/kg)/(μg/L)
  Vss: 0.0015 mg/kg/(μg/L)
[5]
  Peptide concentration in the kidneys over time: increased 30 min after the injection, slightly decreased after 2 h, but increased after 6 h
  Time of peak of the peptide in the brain: 2 h
  Time of peak of the peptide in the liver: 30 min
  Time of peak of the peptide in the spleen: 30 min
  Time the peptide could be found in the brain: up to 6 h
[5]; 5 min after injection
  Peptide concentration in the lungs: high concentration
[5]; 4 mg/kg
  Peptide in the pancreas: not possible to identify; also recorded: could not be found
[6]; mice, single dose
  Clinical signals of toxicity: no clinical signals of toxicity were observed
[6]; spleen, liver, pancreas, lungs, kidneys, 5 and 30 min, 2 and 6 h after single 4 mg/kg i.v. dose, 4 mg/kg
  Histological alterations (cell/tissue morphology, inflammatory infiltrate): no morphological alteration in any organ; also recorded: No alterations were detected

## pyrazinecarboxamide
[7]
  IC50: < 1 nM
